Where two headings read alike, the source gives them in different places.
Experiments:
[1] = molecular target: T1, SP9030 (human leukotriene receptor, SEQ ID NO: 2) (Homo sapiens, UniProt Q9NPC1); assay: Radioligand competition assay using ^3H-LTB4 as the label on membranes of COS-7 cells transfected with SP9030 cDNA; format: binding; conditions: for Affinity of the receptor for the ligand (in words): summary statement; for Ki: read-out: Ki (competition with ^3H-LTB4)
T1 construct: The ORF of SP9030 was cloned in the expression vector pCR3.1 (pCR3.1-SP9030); expressed in transfected cells; host or cells: COS-7 cells (membranes)
T1 sequence (Q9NPC1 1-358): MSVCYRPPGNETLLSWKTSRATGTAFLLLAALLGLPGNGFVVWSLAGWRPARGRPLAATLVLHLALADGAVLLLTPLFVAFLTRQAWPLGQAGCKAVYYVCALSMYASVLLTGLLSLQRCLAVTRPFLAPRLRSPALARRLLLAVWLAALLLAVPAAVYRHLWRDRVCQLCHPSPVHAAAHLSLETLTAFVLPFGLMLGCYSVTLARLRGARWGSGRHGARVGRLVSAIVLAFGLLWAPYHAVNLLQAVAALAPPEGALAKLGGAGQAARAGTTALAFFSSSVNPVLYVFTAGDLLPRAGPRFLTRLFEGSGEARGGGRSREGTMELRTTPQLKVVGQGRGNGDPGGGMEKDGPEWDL
Experimental: COS-7 cells, grown in DMEM/10% FCS until 80-90% confluence, were transfected with SuperFect agent (Giagene) at 20 μg DNA/150 mm plate. Forty eight hours after transfection, medium was changed to Opti-MEM or DMEM/Opti-MEM(1:1)/5% FCS. Cells were harvested 72 hours after transfection and membranes from the cells were prepared as follows. The cells were washed with 20 ml PBS without Ca^2+/Mg^2+ and incubated with 10 ml […] Hepes pH 7.4, 0.5 mM PMSF, 20 μg/ml aprotinin. The cells were scraped off the plate and vortexed. The cell suspension was then centrifuged at 13,000 g at 4° C. for 15 min. The pellets were re-suspended in 1.8 ml 50 mM Tris-Cl, pH 7.5 and vortexed. The membranes were homogenized with a 23-gauge needle. The protein concentration of the membrane preparations was determined with the BCA agents (Pierce).
Radioligand binding assays were performed to test the ability of SP9030, when expressed in cultured cells, to bind ^3H-labeled leukotriene. The ORF of SP9030 was cloned in the expression vector pCR3.1 (pCR3.1-SP9030). COS-7 cells were transfected with pCR3.1-SP9030 or pCR3.1 alone (mock transfection). Two days after transfection, the normal growth medium DMEM/10% FCS was replaced by either Opti-MEM or DMEM-Opti-MEM/5% FCS. The cells were allowed to grow one more day and then membranes were prepared for use in binding assay.
The reactions were incubated for 1 hour at 4° C. while rotated slowly. Multiscreen FB filters (Millipore) pre-soaked with 50 μl binding assay buffer for 1 hour at room temperature were used to filter the binding assays and the filters were washed twice with 100 μl 50 mM TrisCl, pH 7.5 (ice cold). Fifty microliters of scintillation fluid was added to the filters and counted to detect the bound radioligands. For radioligand competition assays, 160 μl binding assay buffer containing appropriate membranes were mixed with 20 μl of binding assay buffer containing 6% DMSO (v/v) and various concentrations of competing compounds. […] The final concentration of radioligand was 0.25 nM. Incubation conditions were the same as that used for the above described saturation assays.
COS-7 cells transfected with SP9030 cDNA were harvested three days after transfection and membrane prepared from cells used for binding assays.

[2] = molecular target: T2, SP9030 expressed in 293-EBNA cells (Homo sapiens, UniProt Q9NPC1); assay: Intracellular Ca2+ flux measurement (FLIPR) in 293-EBNA cells expressing SP9030; format: cell-based; conditions: 293-EBNA cells transfected with SP9030, Fluo-3, FLIPR
T2 construct: expressed in transfected cells; host or cells: 293-EBNA cells
T2 sequence (Q9NPC1 1-358): T1 sequence (Q9NPC1 1-358)
Experimental: (§1) 293-EBNA cells, grown in DMEM containing 10% FCS until 80-90% confluence, were transfected with SuperFect transfection agent. The next day, cells were trypsinized off culture plates and washed with PBS lacking Ca^2+/Mg^2+. The cells were then seeded at a density of 35,000 cells per 100 μl medium) into 96-well plates that were pre-coated with poly-D-lysine (Becton Dickinson). The third day following transfection, medium was removed from cells and 100 μl Hank's balanced salt solution (lacking phenol red) containing 4 μM of Fluo-3, AM (Molecular Probes), 20 mM Hepes, pH 7.4, 0.1% (w/v) BSA and […] added and subsequently incubated at 37° C., 5% CO2 for 1 hour. The cells were then washed three times with 150 μl wash buffer containing HANK's BSS, 40 mM Hepes, pH 7.4 and […]. One hundred μl of the wash buffer was added after the final wash and Ca^2+ flux was measured after addition of 40 μl of wash buffer containing appropriate concentration of ligands. The FLIPR instrument (Molecular Device) was used in the measurement of Ca^2+ flux.
(§2) Intracellular function that the SP9030 receptor may mediate through activation by its ligand was examined in measurements of intracellular Ca^2+ flux.

[3] = system: 293-EBNA cells mock transfected without SP9030 cDNA; assay: Intracellular Ca2+ flux measurement (FLIPR) in mock transfected 293-EBNA cells; format: cell-based
Experimental: as §1, §2

| Affinity of the receptor for the ligand (in words) [1] | Cellular Ca2+ release [2] | Ki ([1]; 0.25 nM ^3H-LTB4, Ki=EC50/(1+[^3H-LTB4]/Kd), Kd […]) [nM] | SMILES | Ca2+ response to incubation with ligand [3] | Ki [1] [nM] |
| --- | --- | --- | --- | --- | --- |
| high affinity |  |  | CCCCC[C@H](O)/C=C/C=C\C/C=C\C/C=C\CCCC(=O)O [15(5)-OH-5z, 8z, 11z, 13e)-eicosatetraenoic acid] |  |  |
| high affinity | activated cellular Ca^2+ release |  | CCCCC/C=C\C[C@@H](O)/C=C/C=C/C=C\[C@@H](O)CCCC(=O)O [LTB4, leukotriene B4] | did not respond |  |
| high affinity |  | 8.6 ± 5.3 | CC/C=C\C/C=C\C[C@@H](O)/C=C/C=C/C=C\[C@@H](O)CCCC(=O)O [LTB5, leukotriene B5] |  |  |

| SMILES | Affinity of the receptor for the ligand (in words) [1] | Cellular Ca2+ release [2] | Ki ([1]; 0.25 nM ^3H-LTB4, Ki=EC50/(1+[^3H-LTB4]/Kd), Kd […]) [nM] | Ca2+ response to incubation with ligand [3] | Ki [1] [nM] |
| --- | --- | --- | --- | --- | --- |
| CCCCC[C@H](O)/C=C/C=C\C=C\C=C\[C@@H](O)[C@@H](O)CCCC(=O)O [lipoxin A4] | high affinity |  |  |  | 112 ± 40 |

From patent publication US6939953B2, “Leukotriene receptor” (Schering Corporation, priority 1999, dated 2005)
